Test results as given in PubChem BioAssay AID1963862 (Molecular Pharmacology Branch, DTP, NCI, 2024).

Test system: KRAS patient-derived spheroids with HUVEC/MSC, viability
Assay: Anticancer human tumor 941728-121-R-J1-PDC patient-derived lung adenocarcinoma cell line growth inhibition [KRAS2]
Details: for IC50: curve of first compound; for viability, T/C: stronger effect = lower value; active means viability on the fitted dose curve at most 10% of control; inactive means the rest
Summary of the method: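 Combination screen of spheroid viability in tumor-cell co-cultures with endothelial (HUVEC) and mesenchymal stem cell stroma. Each agent was tested in half-log dilutions, topping at clinical Cmax or at 10 microM without a known Cmax.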

[1] = second compound 0.1 µM, first compound 0.000316 µM
[2] = second compound 0.1 µM, first compound 0.001 µM
[3] = second compound 0.1 µM, first compound 0.00316 µM
[4] = second compound 0.1 µM, first compound 0.01 µM
[5] = second compound 0.1 µM, first compound 0.0316 µM
[6] = second compound 0.316 µM, first compound 0.000316 µM
[7] = second compound 0.316 µM, first compound 0.001 µM
[8] = second compound 0.316 µM, first compound 0.00316 µM
[9] = second compound 0.316 µM, first compound 0.01 µM
[10] = second compound 0.316 µM, first compound 0.0316 µM
[11] = second compound 1 µM, first compound 0.000316 µM
[12] = second compound 1 µM, first compound 0.001 µM
[13] = second compound 1 µM, first compound 0.00316 µM
[14] = second compound 1 µM, first compound 0.01 µM
[15] = second compound 1 µM, first compound 0.0316 µM
[16] = second compound 3.16 µM, first compound 0.000316 µM
[17] = second compound 3.16 µM, first compound 0.001 µM
[18] = second compound 3.16 µM, first compound 0.00316 µM
[19] = second compound 3.16 µM, first compound 0.01 µM
[20] = second compound 3.16 µM, first compound 0.0316 µM
[21] = second compound 10 µM, first compound 0.000316 µM
[22] = second compound 10 µM, first compound 0.001 µM
[23] = second compound 10 µM, first compound 0.00316 µM
[24] = second compound 10 µM, first compound 0.01 µM
[25] = second compound 10 µM, first compound 0.0316 µM
[26] = second compound 0.1 µM, first compound 0.1 µM
[27] = second compound 0.316 µM, first compound 0.1 µM
[28] = second compound 1 µM, first compound 0.1 µM
[29] = second compound 3.16 µM, first compound 0.1 µM
[30] = second compound 10 µM, first compound 0.1 µM
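Further: spheroids exposed to agents for seven days before readout.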

CC(=O)Nc1cccc(-n2c(=O)n(C3CC3)c(=O)c3c(Nc4ccc(I)cc4F)n(C)c(=O)c(C)c32)c1 + COc1cc2nc(C)nc(NC(C)c3cc(N)cc(C(F)(F)F)c3)c2cc1OC1CCOC1
0.129 nM: IC50 (second compound 0.1 µM)
inactive: viability, T/C (second compound 0.1 µM, first compound 0.0001 µM) 51.3% | viability, T/C [1] 47.6% | viability, T/C [2] 39.7% | viability, T/C [3] 39.5% | viability, T/C [4] 39.4% | viability, T/C [5] 29.4% | viability, T/C (second compound 0.316 µM, first compound 0.0001 µM) 44.3% | viability, T/C [6] 40.5% | viability, T/C [7] 40% | viability, T/C [8] 35.8% | viability, T/C [9] 36.3% | viability, T/C [10] 29.9% | viability, T/C (second compound 1 µM, first compound 0.0001 µM) 41.1% | viability, T/C [11] 40.8% | viability, T/C [12] 38.1% | viability, T/C [13] 30.6% | viability, T/C [14] 31.1% | viability, T/C [15] 25.7% | viability, T/C (second compound 3.16 µM, first compound 0.0001 µM) 32% | viability, T/C [16] 29% | viability, T/C [17] 24.6% | viability, T/C [18] 18.8% | viability, T/C [19] 21.8% | viability, T/C [20] 17.7%
active: viability, T/C (second compound 10 µM, first compound 0.0001 µM) 6.11% | viability, T/C [21] 3.95% | viability, T/C [22] 3.66% | viability, T/C [23] 2.67% | viability, T/C [24] 2.71% | viability, T/C [25] 2.71%
< 0.1 nM: IC50 (second compound 0.316 µM) | IC50 (second compound 1 µM) | IC50 (second compound 3.16 µM) | IC50 (second compound 10 µM)

CC(C)n1nc(-c2ccc3oc(N)nc3c2)c2c(N)ncnc21 + COc1cc2nc(C)nc(NC(C)c3cc(N)cc(C(F)(F)F)c3)c2cc1OC1CCOC1
< 0.316 nM: IC50 (second compound 0.1 µM) | IC50 (second compound 0.316 µM) | IC50 (second compound 1 µM) | IC50 (second compound 3.16 µM) | IC50 (second compound 10 µM)
inactive: viability, T/C [1] 41.2% | viability, T/C [2] 47.9% | viability, T/C [3] 40.9% | viability, T/C [4] 33.3% | viability, T/C [5] 31% | viability, T/C [26] 28.3% | viability, T/C [6] 42.4% | viability, T/C [7] 50% | viability, T/C [8] 40.4% | viability, T/C [9] 24.3% | viability, T/C [10] 24.9% | viability, T/C [27] 16.7% | viability, T/C [11] 40.8% | viability, T/C [12] 37% | viability, T/C [13] 26.1% | viability, T/C [14] 19.8% | viability, T/C [15] 19.9% | viability, T/C [28] 12.8% | viability, T/C [16] 31.4% | viability, T/C [17] 31.9% | viability, T/C [18] 18.5% | viability, T/C [19] 15% | viability, T/C [20] 12.6%
active: viability, T/C [29] 4.73% | viability, T/C [21] 7.59% | viability, T/C [22] 6.39% | viability, T/C [23] 2.23% | viability, T/C [24] 2.22% | viability, T/C [25] 0.71% | viability, T/C [30] 4.65%

CC1(C)CCC(CN2CCN(c3ccc(C(=O)NS(=O)(=O)c4ccc(NCC5CCOCC5)c([N+](=O)[O-])c4)c(Oc4cnc5[nH]ccc5c4)c3)CC2)=C(c2ccc(Cl)cc2)C1 + COc1cc2nc(C)nc(NC(C)c3cc(N)cc(C(F)(F)F)c3)c2cc1OC1CCOC1
< 31.6 nM: IC50 (second compound 0.1 µM) | IC50 (second compound 0.316 µM) | IC50 (second compound 1 µM) | IC50 (second compound 3.16 µM) | IC50 (second compound 10 µM)
inactive: viability, T/C [5] 38.8% | viability, T/C [26] 40.6% | viability, T/C (second compound 0.1 µM, first compound 0.316 µM) 36.4% | viability, T/C (second compound 0.1 µM, first compound 1 µM) 33.9% | viability, T/C (second compound 0.1 µM, first compound 3.16 µM) 6.79% | viability, T/C [10] 36.7% | viability, T/C [27] 33% | viability, T/C (second compound 0.316 µM, first compound 0.316 µM) 38.5% | viability, T/C (second compound 0.316 µM, first compound 1 µM) 31.8% | viability, T/C (second compound 0.316 µM, first compound 3.16 µM) 7.02% | viability, T/C [15] 35.2% | viability, T/C [28] 46.4% | viability, T/C (second compound 1 µM, first compound 0.316 µM) 34.4% | viability, T/C (second compound 1 µM, first compound 1 µM) 32.2% | viability, T/C (second compound 1 µM, first compound 3.16 µM) 7.71% | viability, T/C [20] 39.2% | viability, T/C [29] 34% | viability, T/C (second compound 3.16 µM, first compound 0.316 µM) 32.2% | viability, T/C (second compound 3.16 µM, first compound 1 µM) 29.6% | viability, T/C (second compound 3.16 µM, first compound 3.16 µM) 5.76% | viability, T/C [25] 19.6% | viability, T/C [30] 19.7% | viability, T/C (second compound 10 µM, first compound 0.316 µM) 17.5%
active: viability, T/C (second compound 0.1 µM, first compound 10 µM) 4.58% | viability, T/C (second compound 0.316 µM, first compound 10 µM) 3.43% | viability, T/C (second compound 1 µM, first compound 10 µM) 1.61% | viability, T/C (second compound 3.16 µM, first compound 10 µM) 3.49% | viability, T/C (second compound 10 µM, first compound 1 µM) 7.37% | viability, T/C (second compound 10 µM, first compound 3.16 µM) 1.44% | viability, T/C (second compound 10 µM, first compound 10 µM) 0.52%
